This is an account of results in patent publication US20180354962A1, “[{[2,3-Dihydro-1H-inden-1-yl]amino}-2H,3H-furo[3,2-b]pyridin-3-yl]acetic acids, pharmaceutical compositions and uses thereof” (Boehringer Ingelheim International GmbH, priority 2015, published 2018).

The term pEC50 denotes the EC50 on a negative log10 scale, so that one unit is a factor of ten. Low readings indicate a large EC50, high ones a small EC50. In general, pIC50 refers to the negative decadic logarithm of the IC50, by convention in mol/L. Low values mean a high IC50, high ones a low IC50. Usually solubility stands for the dissolved amount per volume that the medium holds.

One series addresses human GPR40 receptor (Homo sapiens, UniProt O14842). Kind of series: IP1 accumulation measurements using the IPOne assay system. Format: cell-based. The conditions noted are these: 1321N1 cells stably expressing human GPR40; 1 h stimulation at 37° C. How it is done: IP1 accumulation measurements using the IPOne assay system—1321N1 cells stably expressing human GPR40 receptor (Euroscreen, Belgium) are seeded 24 h before the assay in white 384-well plates in culture medium containing 10% FCS, 1% Na-Pyruvate and 400 μg/mL G418. IP1 is assayed according to the manufacturer's description (Cisbio Bioassays, France). In brief, the assay is started by substitution of the culture medium by stimulation buffer (Hepes 10 mM, CaCl2 1 mM, MgCl2 0.5 mM, KCl 4.2 mM, NaCl 146 mM, glucose 5.5 mM and LiCl 50 mM, pH 7.4). Cells are stimulated for 1 h at 37° C., 5% CO2 by addition of the compounds that are diluted in stimulation buffer containing LiCl. Assays are stopped by adding HTRF-conjugates (IP1-d2 and Anti-IP1 cryptate Tb) and lysis buffer, provided by the manufacturer. After an incubation time of 1 h at room temperature plates are measured using an EnVision™, Perkin Elmer. The obtained fluorescence ratios at 665/615 […] are then used to calculate the pEC50 values using Assay Explorer 3.3 Software (Accelrys, Inc.) by interpolation using an IP1 reference curve and subsequent sigmoidal curve fitting allowing for a variable hill slope.

The target of series [1] is T1, cytochrome P450 2C9-isoenzyme (Homo sapiens, UniProt P11712).
T1 construct: is assayed at 37° C. with human liver microsomes; from tissue; host or cells: human liver microsomes
Kind of series: Inhibition of CYP-2C9 (diclofenac hydroxylation, human liver microsomes). Type of series: in vitro ADME. The conditions noted are these: human liver microsomes 0.1 mg/mL, diclofenac 10 μM, 37° C. On the procedure:
All assays are carried out on a robotic system in 96 well plates. The final incubation volume contains TRIS buffer (0.1 M), MgCl2 (5 mM), human liver microsomes (0.1 mg/mL), diclofenac (10 μM) and the test compound at five different concentrations or no compound (high control) in duplicate (e.g. highest concentration 10-50 μM with subsequent serial 1:4 dilutions). Following a short preincubation period, reactions are started with the cofactor (NADPH, 1 mM) and stopped by cooling the incubation down to 8° C. and subsequently by addition of one volume of acetonitrile. An internal standard solution—the stable isotope 13C6-hydroxydiclofenac—is added after quenching of incubations. Peak area analyte (=metabolite formed) and internal standard is determined by LC-MS/MS. The resulting peak area ratio analyte to internal standard in these incubations is compared to a control activity containing no test compound. Within each of the assay runs, the IC50 of a positive control inhibitor (sulfaphenazole) is determined. Experimental IC50 values are calculated by least square regression according to the following equation: % control activity=(100% control activity/(1+(I/IC50)S)))−B with I=inhibitor concentration S=slope factor B=background activity (lower plateau of the inhibition curve) If the inhibition of the reaction is already >50% at the lowest concentration of the test compound, the IC50 is assigned “<lowest concentration tested” (usually <0.4 μM). If the inhibition of the reaction is still <50% at the highest concentration of the test compound, the IC50 is assigned “>highest concentration tested” (usually >50 μM).

Series [2] can be described thus: Aqueous solubility from DMSO stock, LC-UV. Type of series: physicochemical. The conditions noted are these: aqueous buffer, kinetic from dmso stock; buffer pH 2.2, 24 h shaking, 2.5% DMSO. How it is done:
The aqueous solubility of the compounds of the invention is determined by comparing the amount dissolved in buffer to the amount in an acetonitrile/water (1/1) solution. Starting from a 10 mM DMSO stock solution aliquots are diluted with acetonitrile/water (1/1) or buffer, respectively. After 24 h of shaking, the solutions are filtrated and analyzed by LC-UV. The amount dissolved in buffer is compared to the amount in the acetonitrile solution. Solubility is usually being measured from 0.001 to 0.125 mg/mL at a DMSO concentration of 2.5%. If more than 90% of the compound is dissolved in buffer, the value is marked with “>”.

The target in series [3] is T2, cytochrome P450 2C8-isoenzyme (Homo sapiens, UniProt P10632).
T2 construct: is assayed at 37° C. with human liver microsomes; from tissue; host or cells: human liver microsomes
T2 sequence (P10632 1-490): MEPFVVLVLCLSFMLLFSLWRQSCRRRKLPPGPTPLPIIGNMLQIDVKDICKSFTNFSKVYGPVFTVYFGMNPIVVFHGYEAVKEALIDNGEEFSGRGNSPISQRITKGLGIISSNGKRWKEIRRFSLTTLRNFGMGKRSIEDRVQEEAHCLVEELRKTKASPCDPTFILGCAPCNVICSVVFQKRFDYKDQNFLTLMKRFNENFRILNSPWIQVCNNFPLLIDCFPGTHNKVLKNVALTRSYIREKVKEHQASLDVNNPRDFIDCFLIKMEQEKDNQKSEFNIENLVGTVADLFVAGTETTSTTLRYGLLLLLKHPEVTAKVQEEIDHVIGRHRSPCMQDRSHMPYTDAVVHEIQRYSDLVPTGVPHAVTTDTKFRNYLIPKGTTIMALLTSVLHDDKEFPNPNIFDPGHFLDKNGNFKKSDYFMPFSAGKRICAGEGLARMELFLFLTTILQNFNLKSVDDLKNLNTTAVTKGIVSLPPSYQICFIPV
Kind of series: Inhibition of CYP-2C8 (amodiaquine deethylation, human liver microsomes). Format: in vitro ADME. The conditions noted are these: human liver microsomes 0.05 mg/mL, amodiaquine 1 μM, 37° C. How it is done: All assays are carried out on a robotic system in 96 well plates. The final incubation volume contains TRIS buffer (0.1 M), MgCl2 (5 mM), human liver microsomes (0.05 mg/mL), amodiaquine (1 μM) and the test compound at five different concentrations or no compound (high control) in duplicate (e.g. highest concentration 10-50 μM with subsequent serial 1:4 dilutions). Following a short preincubation period, reactions are started with the cofactor (NADPH, 1 mM) and stopped by cooling the incubation down to 8° C. and subsequently by addition of one volume of acetonitrile. An internal standard solution—the stable isotope d5-desethylamodiaquine—is added after quenching of incubations. Peak area analyte (=metabolite formed) and internal standard is determined by LC-MS/MS. The resulting peak area ratio analyte to internal standard in these incubations is compared to a control activity containing no test compound. Within each of the assay runs, the IC50 of a positive control inhibitor (Montelukast) is determined. Experimental IC50 values are calculated by least square regression according to the following equation: % control activity=(100% control activity/(1+(I/IC50)S))−B with I=inhibitor concentration; S=slope factor; B=background activity (lower plateau of the inhibition curve) If the inhibition of the reaction is already >50% at the lowest concentration of the test compound, the IC50 is assigned “<lowest concentration tested” (usually <0.4 μM). If the inhibition of the reaction is still <50% at the highest concentration of the test compound, the IC50 is assigned “>highest concentration tested” (usually >50 μM).
In general terms: Liver microsomes are vesicles of endoplasmic reticulum, rich in cytochrome P450 enzymes.

A short description of series [4]: Chemical stability (degradation kinetics) in acidic aqueous media, HPLC. The note with it: acetonitrile/0.1 M aqueous HCl (2:3), pH ca. 1.2, 37° C. Format: physicochemical. How it is done:
Degradation kinetics is used to simulate chemical stability of compounds in the acidic part of the gastro intestinal tract. […] Their application as medical drugs to treat human diseases is therefore less restricted and troublesome. The chemical stability of the compounds of the invention at pH value of ca. 1.2 is determined as follows: Compound is dissolved in an HPLC vial either in a mixture of acetonitrile/0.1 M aqueous HCl (2:3; pH ca. 1.2) or in a mixture of acetonitrile/McIlvaine buffer pH 7.4 (2:3) to get a concentration of approximately 0.25 mg/ml. The vial was then transferred into an HPLC autosampler system and maintained at a temperature of 37° C. A first sample is taken and injected immediately into a standard HPLC system with a UV DAD detector. Further samples are injected after 2, 4, 6, 8 and 10 hours. Degradation of the compound is measured by determining the recovery rate of compound [%] for each injection using an HPLC standard gradient method. Therefore the peak area of the main peak for the first injection (AUt0) is determined and set as 100%. Peak area of the main peak is determined also for the further injections (AUtn, n=2, 4, 6, 8, 10) and expressed as fraction of […][%].

pEC50, pIC50: −log10 of the molar value. Values after ≈ are worked out from the molar mass of the structure shown.

T1 sequence (P11712 whole entry): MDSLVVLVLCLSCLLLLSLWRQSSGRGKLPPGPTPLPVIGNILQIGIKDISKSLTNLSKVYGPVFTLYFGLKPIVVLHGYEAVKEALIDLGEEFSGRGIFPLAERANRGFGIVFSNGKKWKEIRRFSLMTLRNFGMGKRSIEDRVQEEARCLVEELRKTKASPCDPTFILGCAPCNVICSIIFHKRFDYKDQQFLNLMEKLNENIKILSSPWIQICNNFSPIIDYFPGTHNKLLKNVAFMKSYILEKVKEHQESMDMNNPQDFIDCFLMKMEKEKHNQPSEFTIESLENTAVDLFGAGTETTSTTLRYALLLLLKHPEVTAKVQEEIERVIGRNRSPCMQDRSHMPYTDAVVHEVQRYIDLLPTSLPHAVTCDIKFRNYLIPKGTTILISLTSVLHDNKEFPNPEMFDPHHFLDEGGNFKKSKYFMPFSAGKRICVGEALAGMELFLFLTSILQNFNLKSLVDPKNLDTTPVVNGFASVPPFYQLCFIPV
human GPR40 receptor, sequence (O14842 whole entry): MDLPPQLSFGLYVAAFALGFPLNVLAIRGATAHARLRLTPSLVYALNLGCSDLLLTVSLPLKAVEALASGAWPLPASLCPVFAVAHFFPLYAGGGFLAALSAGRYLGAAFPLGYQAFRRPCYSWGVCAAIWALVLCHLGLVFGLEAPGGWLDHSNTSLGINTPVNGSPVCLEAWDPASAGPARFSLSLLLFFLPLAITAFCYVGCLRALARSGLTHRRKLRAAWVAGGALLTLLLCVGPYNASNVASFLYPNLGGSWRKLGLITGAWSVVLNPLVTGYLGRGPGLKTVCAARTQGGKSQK

Take `Cc1cc(OCCC(C)(C)O)cc(C)c1-c1ccc(F)c2c1CC[C@H]2Nc1cnc2c(c1)OC[C@H]2CC(=O)O` [Example 2, 2-[(3S)-6-{[(1R)-7-Fluoro-4-[4-(3-hydroxy-3-methylbutoxy)-2,6-dimethylphenyl]-2,3-dihydro-1H-inden-1-yl]amino}-2H,3H-furo[3,2-b]pyridin-3-yl]acetic acid]: the pEC50 at human GPR40 receptor is 7.21. In addition, the pIC50 in series [1] is less than 4.30; in series [3], 4.49. In series [2], this compound yielded a solubility at 24 h of 60 µg/mL (≈ 112 µM). The “Amount of degradation after 2 h” value in series [4] is recorded as 0.2%.

At human GPR40 receptor, `Cc1cc(OCCC(C)(C)O)cc(C)c1-c1cccc2c1CC[C@H]2Nc1cnc2c(c1)OC[C@H]2CC(=O)O` [Example 4, 2-[(3S)-6-{[(1R)-4-[4-(3-Hydroxy-3-methylbutoxy)-2,6-dimethylphenyl]-2,3-dihydro-1H-inden-1-yl]amino}-2H,3H-furo[3,2-b]pyridin-3-yl]acetic acid] showed a pEC50 of 7.19. For the same compound, the values for the pIC50 in series [1] and in series [3] were less than 4.30 and 4.37, respectively. The compound further returned a solubility at 24 h in series [2] of 57 µg/mL (≈ 110 µM). Also, in series [4], the “Amount of degradation after 2 h” value was less than 0.5%.

On to `Cc1cc(OCCC(C)(C)O)cc(C)c1-c1ccc(F)c2c1CC[C@H]2Oc1ccc2c(c1)OC[C@H]2CC(=O)O` [4 (WO 2013/144097), reference compound], for which the figures for the pIC50 in series [1] and in series [3] were 4.68 and 5.22, respectively. The compound further came in with a solubility at 24 h in series [2] of less than 1 µg/mL. Also, the “Amount of degradation after 2 h” value in series [4] is reported as 13%.

Consider `Cc1cc(OCC(C)(C)O)cc(C)c1-c1cccc2c1CC[C@H]2Nc1cnc2c(c1)OCC2CC(=O)O` (stereo partly drawn) [Example 118, 2-(6-{[(1R)-4-[4-(2-Hydroxy-2-methylpropoxy)-2,6-dimethylphenyl]-2,3-dihydro-1H-inden-1-yl]amino}-2H,3H-furo[3,2-b]pyridin-3-yl)acetic acid], for which, on human GPR40 receptor, the negative logarithm of the EC50 (pEC50) was 6.80. Moreover, the pIC50 in series [1] and in series [3] was less than 4.30 in each case. Besides, the concentration in solution in series [2] (solubility at 24 h) came to 66 µg/mL (≈ 131 µM).

Regarding `Cc1cc(OCCCS(C)(=O)=O)cc(C)c1-c1cccc2c1CC[C@H]2Oc1ccc2c(c1)OC[C@H]2CC(=O)O` [2 (WO 2013/144098), reference compound], in series [3], the pIC50 is 4.72. Further, in series [4], the “Amount of degradation after 2 h” value stood at 94%.

Compound `Cc1cc(OCC(C)(C)C#N)cc(C)c1-c1cccc2c1CC[C@H]2Nc1cnc2c(c1)OCC2CC(=O)O` (stereo partly drawn) [Example 123, 2-(6-{[(1R)-4-[4-(2-Cyano-2,2-dimethylethoxy)-2,6-dimethylphenyl]-2,3-dihydro-1H-inden-1-yl]amino}-2H,3H-furo[3,2-b]pyridin-3-yl)acetic acid] had a pEC50 at human GPR40 receptor of 6.82. Besides, the pIC50 was 4.55 in series [1] and 5.05 in series [3]. Further, in series [2], the solubility at 24 h was less than 1 µg/mL.

For the compound `Cc1cc(-c2nnn(CC(C)(C)O)n2)cc(C)c1-c1cccc2c1CC[C@H]2Nc1cnc2c(c1)OCC2CC(=O)O` (stereo partly drawn) [Example 122, 2-(6-{[(1R)-4-{4-[2-(2-Hydroxy-2-methylpropyl)-2H-1,2,3,4-tetrazol-5-yl]-2,6-dimethylphenyl}-2,3-dihydro-1H-inden-1-yl]amino}-2H,3H-furo[3,2-b]pyridin-3-yl)acetic acid], the pEC50 at human GPR40 receptor is 7.62. Also, the negative logarithm of the IC50 (pIC50) in series [1] is less than 4.30; in series [3], 4.49. For the same compound, in series [2], the solubility at 24 h was 45 µg/mL (≈ 81.1 µM).

`Cc1cc(-c2ccn(C)c(=O)c2)cc(C)c1-c1cccc2c1CC[C@H]2Nc1cnc2c(c1)OCC2CC(=O)O` (stereo partly drawn) [Example 120, 2-(6-{[(1R)-4-[2,6-Dimethyl-4-(1-methyl-2-oxo-1,2-dihydropyridin-4-yl)phenyl]-2,3-dihydro-1H-inden-1-yl]amino}-2H,3H-furo[3,2-b]pyridin-3-yl)acetic acid] had a pEC50 at human GPR40 receptor of 7.28. The pIC50 is less than 4.30 in series [1] and 4.92 in series [3]. The same compound registered a solubility at 24 h in series [2] of 29 µg/mL (≈ 55.6 µM).

As to `Cc1cc(-c2nnn(C)n2)cc(C)c1-c1ccc(F)c2c1CC[C@H]2Oc1ccc2c(c1)OC[C@H]2CC(=O)O` [95 (WO 2013/144097), reference compound], the pIC50 is 4.72 in series [1] and 5.05 in series [3]. Moreover, in series [2], the solubility at 24 h is less than 1 µg/mL. The “Amount of degradation after 2 h” value in series [4] is listed as 4%.

On human GPR40 receptor, `COc1cc(F)c(-c2cccc3c2CC[C@H]3Nc2cnc3c(c2)OCC3CC(=O)O)c(F)c1` (stereo partly drawn) [Example 127, 2-(6-{[(1R)-4-(2,6-Difluoro-4-methoxyphenyl)-2,3-dihydro-1H-inden-1-yl]amino}-2H,3H-furo[3,2-b]pyridin-3-yl)acetic acid] showed a pEC50 of 5.91. The pIC50 in series [1] was less than 4.30; in series [3], 4.57. The same compound registered a solubility at 24 h in series [2] of 30 µg/mL (≈ 66.3 µM).
